Test results reported in patent US8158589B2, “Peptides with the capacity to bind to transforming growth factor β1 (TGF-β1)” (Proyecto Biomedicine Cima, S.L., priority 2003, dated 2012).
Ends that are not written are not given here.

What was measured:
TGF-β1 [1] = biological target: T1, TGF-β1 (Homo sapiens, UniProt P01137); test: Western Blot of p-Smad2, Smad2/3 and Smad7 in primary culture of rabbit corneal fibroblasts; assay type: cell-based; set-up: host or cells: added to a primary culture of rabbit corneal fibroblasts
T1 sequence (P01137 279-390 limits assumed, species assumed): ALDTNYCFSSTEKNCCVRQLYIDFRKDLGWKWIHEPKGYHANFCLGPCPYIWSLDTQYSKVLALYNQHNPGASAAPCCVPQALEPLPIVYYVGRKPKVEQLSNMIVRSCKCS
Protocol: (§1) Therefore, Western Blot and immunofluorescence studies were conducted to determine, from cells extracted from the in vivo studies, the signaling pathway used by the peptides administered topically. It should be emphasized that said studies were conducted on fibroblasts from rabbit cornea and not from rat cornea. This decision was made due to the difficulty entailed in isolating fibroblasts from rodent eyes.
Since the scientific literature repeatedly describes the TGF-β1 signaling pathways, the decision was made to go into depth in such pathways by means of the techniques described in the methodology section. Said pathways involve the study of the Smad protein family, specifically the study of the isoforms Smad2, 2/3 and 7.
To that end, protein extracts obtained from the primary culture of rabbit fibroblasts were treated with TGF-β1 at concentrations of 0, 3 and 5 ng/ml and, 50 and 200 μg/ml of peptide p17 and p144.

TGF-β1 [2] = biological target: T2, TGF-β1 (Mus musculus, UniProt P04202); test: Model of acute liver damage induced by CCl4, type I collagen mRNA by real time PCR; assay type: in vivo, mice
T2 construct: from tissue; host or cells: liver of Balb/C mice (CCl4 model); lung of C57BL/6 mice (bleomycin model)
T2 sequence (P04202 279-390 limits assumed): as the sequence (P01137 279-390 limits assumed, species assumed) above, with A75S counted along it
Protocol: Acute liver damage generates a cascade of effects and physiological responses, including elevations in the concentrations of TGF-β1. This elevation is responsible for the expression of the type I collagen gene, among others. In this model of acute liver damage, female Balb/C mice weighing 25 to 30 g, were orally administered a dose of 2 μl of CCl4 (per gram of body weight) dissolved in an equivalent volume of corn oil (volumetric ratio of 1:1). The control group received an equivalent volume of corn oil only, and the treated groups received (following the single oral administration of CCl4 in corn oil) 50 μg of peptide in 500 μl of 1% physiological saline solution in DMSO (dimethyl sulfoxide) every 24 h. After 72 hours all animals were sacrificed, and the liver samples were processed. To evaluate mRNA expression, liver tissue was frozen in liquid nitrogen and stored at −80° C. until further use. Other liver tissue samples were stored in OCT® or Tissue-Tek® (Sakura Finetek B.V.) and processed in the same way as the samples used for mRNA studies. Other liver samples were fixed in 10% buffered formalin solution, embedded in paraffin and processed for their histological evaluation. The amount of mRNA encoding type I collagen was quantified in all groups using a quantitative polymerase chain reaction (PCR) technique. […] The capacity of the testing peptides to block the acute damage, as assessed by measuring the levels of induced type I collagen mRNA was quantified by real time PCR. […] The peptides tested were obtained by conventional solid peptide synthesis procedures (Merrifield R B. J Am Chem Soc 1963; 85:2149-2154; Atherton E et al. J Chem Soc Perkin Trans 1981; 1:538-546).

TGF-β1 [3] = biological target: T3, TGF-β1 (Rattus norvegicus, UniProt P17246); test: Corneal fibrosis and haze after 1 N NaOH damage, topical eye drops, photographs analysed with ImageJ; assay type: in vivo, Long-Evans rats; conditions: fifth formulation eye drops, treated right eye vs control left eye
T3 construct: from tissue; host or cells: cornea of Long-Evans rats
T3 sequence (P17246 279-390 limits assumed): as the sequence (P01137 279-390 limits assumed, species assumed) above, with A75S counted along it
Excerpt: Male Long-Evans rats aged 10 weeks were used, divided into 5 groups: • Group 1: 12 rats, 6 treated with dexamethasone and 6 treated with mitomycin C • Group 2: 12 rats, 6 treated with p17 of the first formulation (see section 6.1.2.b) and 6 treated with p144 of the first formulation (see section 6.1.2.b) • Group 3: 12 rats, 6 treated with p17 of the second formulation (see section 6.1.2.b) and 6 treated with p144 of the second formulation (see section 6.1.2.b) • Group 4: 12 rats, 6 treated with p17 of the third formulation (see section 6.1.2.b) and 6 treated with p144 of the third formulation (see section 6.1.2.b) • Group 5: 12 rats, 6 treated with p17 of the fourth formulation (see section 6.1.2.b) and 6 treated with p144 of the fourth formulation (see section 6.1.2.b) • Group 6: 12 rats, 6 treated with p17 of the fifth formulation (see section 6.1.2.b) and 6 treated with p144 of the fifth formulation (see section 6.1.2.b)
To perform the damage in the cornea, the animals were anesthetized with isoflurane and a 5 mm Whatman paper disc impregnated in 1 N NaOH for 30 seconds was applied to them in the central part of the eye. After the damage, they were washed with abundant physiological saline serum and an antibiotic ointment was applied to them to prevent possible infections in the affected area.
After conducting several in vivo studies with the previously described groups of animals, it could be concluded that the chemical damage occurring after the application of NaOH for 30 seconds caused an excessive lesion for the study which was to be conducted, therefore it was decided to conduct new experiments reducing the time to 15 seconds.
It was randomly established that the left eye of each animal would act as a control and that the right eye would be the treated eye, such that the same animals acts as a control in addition to being treated. It must be pointed out that all the animals received antibiotic treatment in both eyes daily only during the first week of the study for the purposes of avoiding microbial keratitis.
Starting from 0.15% sodium hyaluronate (Hyabak 10 mL, Thea) without preservatives: • p144: 20 mg were dissolved in 5 ml of eye drops, 40 μl of saturated concentrated NaOH were incorporated, stirring and adding in portions of 5 μl. It was sonicated until solubilization. To adjust the pH, 500 μl of 1M Hepes were added, such that the pH changed from 10.5 to 7 • p144 control: 40 μl of saturated NaOH and 500 μl of 1 M HEPES (final concentration of HEPES 50 mM) • p17: 20 mg were dissolved in 5 ml of the eye drops, it was sonicated until complete solubilization and it was incorporated to the vial with a 10 ml syringe and a blue needle to perforate the filter of the contained (final concentration 2 mg/ml) • p17 control: non-manipulated eye drops • Note: The formulations were maintained at 4° C. throughout the study.
The administration of the treatment was initiated twenty-four hours after the damage. After that time a follow-up of the damage was performed, which consisted of taking photographs at days 0, 7, 14, 21, 28 and 35. To take the photographs the animals were anesthetized with isoflurane. Photographs were taken of both the control eye (left) and of the treated eye (right) with and without fluorescein. The photographs with fluorescein allowed to observe the evolution of the epithelial closure of the generated lesion, whereas the photographs without fluorescein show the evolution of the haze of the lesioned area. […]

TGF-β1 [4] = biological target: T1, TGF-β1; test: Immunofluorescence of p-Smad2 translocation to the nucleus in rabbit corneal fibroblasts; assay type: cell-based; set-up: host or cells: added to a primary culture of rabbit corneal fibroblasts; conditions: TGF-β1 treated rabbit corneal fibroblasts
Protocol: as §1

[5] = primary culture, TGF-β1 and peptide

Sequence: TSLDASIIWAMMQN [P144]
- expression of p-Smad2 (TGF-β1 [1]; peptide 50 μg/ml): slight inhibition
- expression of p-Smad2 (TGF-β1 [1]; peptide 200 μg/ml): reaching the values of the controls
- expression of Smad 2/3 (TGF-β1 [1]; [5]): not affected
- expression of Smad 7 (TGF-β1 [1]; [5]): not modified
- % Inhibition of type I collagen mRNA induction (in vivo TGF-β1 biological activity) (TGF-β1 [2]; Balb/C mice, oral CCl4, 50 μg of peptide every 24 h, sacrifice after 72 hours): −3.51 ± 36%
- inhibition of the biological activity of TGF-β1 in vivo (in words) (TGF-β1 [2]; acute liver damage, type I collagen mRNA): does not show any activity
- corneal haze (TGF-β1 [3]): clear decrease
- epithelial closure (fluorescein) (TGF-β1 [3]): clear decrease
- translocation of p-Smad2 to the nucleus (TGF-β1 [4]): inhibited
